Experimental data taken from ChEMBL document CHEMBL1201862, “PubChem BioAssay data set” (2004).
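Following 48 hours of exposure in 96-well plates, responses at five concentrations were used to interpolate endpoints linearly. The concentration for 50% growth inhibition is given as GI50.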 Activity calls are given as the source filed them. Cut-off read from the data, not from the text of the source: active = GI50 up to about 1.1 µM and inactive = higher.

Assays:
Assay in all cases: NCI anticancer screen, dose series, 48 h
BT-549 = tested on: BT-549
PC-3 = tested on: PC-3
HCT-15 = tested on: HCT-15
SK-MEL-28 = tested on: SK-MEL-28
SN12C = tested on: SN12C
RPMI-8226 = tested on: RPMI-8226
OVCAR-3 = tested on: OVCAR-3
Malme-3M = tested on: Malme-3M
NCI-H522 = tested on: NCI-H522
LOX IMVI = tested on: LOX IMVI
A498 = tested on: A498
A549 = tested on: A549
RXF 393 = tested on: RXF 393
NCI/ADR-RES = tested on: NCI/ADR-RES
SW-620 = tested on: SW-620
OVCAR-8 = tested on: OVCAR-8
SR = tested on: SR
UACC-257 = tested on: UACC-257
TK-10 = tested on: TK-10
IGROV-1 = tested on: IGROV-1
OVCAR-4 = tested on: OVCAR-4
EKVX = tested on: EKVX
HCT-116 = tested on: HCT-116
CCRF-CEM = tested on: CCRF-CEM
CAKI-1 = tested on: CAKI-1
MDA-MB-231 = tested on: MDA-MB-231
SK-OV-3 = tested on: SK-OV-3
SF-268 = tested on: SF-268
786-0 = tested on: 786-0
K562 = tested on: K562
SNB-19 = tested on: SNB-19
HOP-92 = tested on: HOP-92
HL-60 = tested on: HL-60
NCI-H23 = tested on: NCI-H23
DU-145 = tested on: DU-145
HOP-62 = tested on: HOP-62
M14 = tested on: M14
KM12 = tested on: KM12
U-251 = tested on: U-251
SK-MEL-2 = tested on: SK-MEL-2
COLO 205 = tested on: COLO 205
MCF7 = tested on: MCF7
OVCAR-5 = tested on: OVCAR-5
SK-MEL-5 = tested on: SK-MEL-5
MDA-N = tested on: MDA-N
MOLT-4 = tested on: MOLT-4
SF-295 = tested on: SF-295
SNB-75 = tested on: SNB-75
Hs-578T = tested on: Hs-578T
MDA-MB-435 = tested on: MDA-MB-435
HT-29 = tested on: HT-29
ACHN = tested on: ACHN
T47D = tested on: T47D
UO-31 = tested on: UO-31
NCI-H226 = tested on: NCI-H226
UACC-62 = tested on: UACC-62
NCI-H460 = tested on: NCI-H460
SF-539 = tested on: SF-539
HCC 2998 = tested on: HCC 2998

Structure (SMILES): COC(=O)c1cc(C)n2c1CS[C@@H]2c1ccccc1
- GI50 (BT-549): 29.2 µM (inactive)
- GI50 (PC-3): 40.5 µM (inactive)
- GI50 (HCT-15): 27.5 µM
- GI50 (SK-MEL-28): > 100 µM (inactive)
- GI50 (SN12C): 37.2 µM (inactive)
- GI50 (RPMI-8226): 28.2 µM (inactive)
- GI50 (OVCAR-3): 32.4 µM (inactive)
- GI50 (Malme-3M): 27.6 µM (inactive)
- GI50 (NCI-H522): 23.2 µM (inactive)
- GI50 (LOX IMVI): 40.1 µM (inactive)
- GI50 (A498): 27.4 µM (inactive)
- GI50 (A549): 34.7 µM (inactive)
- GI50 (RXF 393): 18.6 µM (inactive)
- GI50 (NCI/ADR-RES): 25.1 µM (inactive)
- GI50 (SW-620): 44.6 µM (inactive)
- GI50 (OVCAR-8): 44.4 µM (inactive)
- GI50 (SR): 17.3 µM (inactive)
- GI50 (UACC-257): 47.9 µM (inactive)
- GI50 (TK-10): 66.4 µM (inactive)
- GI50 (IGROV-1): 44.4 µM (inactive)
- GI50 (OVCAR-4): 36.8 µM (inactive)
- GI50 (EKVX): 32.2 µM (inactive)
- GI50 (HCT-116): 33.7 µM (inactive)
- GI50 (CCRF-CEM): 41.4 µM (inactive)
- GI50 (CAKI-1): 38.7 µM (inactive)
- GI50 (MDA-MB-231): 57.4 µM (inactive)
- GI50 (SK-OV-3): 46 µM (inactive)
- GI50 (SF-268): 50.6 µM (inactive)
- GI50 (786-0): 50.6 µM (inactive)
- GI50 (K562): 14.1 µM (inactive)
- GI50 (SNB-19): 66.1 µM (inactive)
- GI50 (HOP-92): 22.4 µM (inactive)
- GI50 (HL-60): 26.2 µM (inactive)
- GI50 (NCI-H23): 34.5 µM (inactive)
- GI50 (DU-145): 82 µM (inactive)
- GI50 (HOP-62): 37.8 µM (inactive)
- GI50 (M14): 24.9 µM (inactive)
- GI50 (KM12): 35.1 µM (inactive)
- GI50 (U-251): 32 µM (inactive)
- GI50 (SK-MEL-2): 28.4 µM (inactive)
- GI50 (COLO 205): 26.9 µM (inactive)
- GI50 (MCF7): 34 µM (inactive)
- GI50 (OVCAR-5): > 100 µM (inactive)
- GI50 (SK-MEL-5): 19.8 µM (inactive)
- GI50 (MDA-N): 21.1 µM (inactive)
- GI50 (MOLT-4): 22.5 µM (inactive)
- GI50 (SF-295): 30.7 µM (inactive)
- GI50 (SNB-75): 16.5 µM (inactive)
- GI50 (Hs-578T): 45.1 µM (inactive)
- GI50 (MDA-MB-435): 19.1 µM (inactive)
- GI50 (HT-29): 31.2 µM (inactive)
- GI50 (ACHN): 58.7 µM (inactive)
- GI50 (T47D): 21.5 µM (inactive)
- GI50 (UO-31): 28.4 µM (inactive)
- GI50 (NCI-H226): 28.8 µM (inactive)

Structure (SMILES): Oc1nnnc2c1sc1ncccc12
- GI50 (BT-549): > 100 µM (inactive)
- GI50 (PC-3): > 100 µM (inactive)
- GI50 (HCT-15): > 100 µM
- GI50 (SK-MEL-28): > 100 µM (inactive)
- GI50 (SN12C): > 100 µM (inactive)
- GI50 (UACC-62): > 100 µM (inactive)
- GI50 (NCI-H460): > 100 µM (inactive)
- GI50 (OVCAR-3): > 100 µM (inactive)
- GI50 (Malme-3M): > 100 µM (inactive)
- GI50 (NCI-H522): > 100 µM (inactive)
- GI50 (LOX IMVI): > 100 µM (inactive)
- GI50 (A498): 39.8 µM (inactive)
- GI50 (A549): > 100 µM (inactive)
- GI50 (RXF 393): > 100 µM (inactive)
- GI50 (NCI/ADR-RES): > 100 µM (inactive)
- GI50 (SW-620): > 100 µM (inactive)
- GI50 (OVCAR-8): > 100 µM (inactive)
- GI50 (SR): 5.7 µM (inactive)
- GI50 (UACC-257): > 100 µM (inactive)
- GI50 (TK-10): > 100 µM (inactive)
- GI50 (IGROV-1): > 100 µM (inactive)
- GI50 (SF-539): > 100 µM (inactive)
- GI50 (OVCAR-4): > 100 µM (inactive)
- GI50 (EKVX): 63.1 µM (inactive)
- GI50 (HCT-116): > 100 µM (inactive)
- GI50 (CCRF-CEM): > 100 µM (inactive)
- GI50 (CAKI-1): > 100 µM (inactive)
- GI50 (MDA-MB-231): 68.2 µM (inactive)
- GI50 (SK-OV-3): 85.1 µM (inactive)
- GI50 (SF-268): > 100 µM (inactive)
- GI50 (786-0): > 100 µM (inactive)
- GI50 (K562): > 100 µM (inactive)
- GI50 (SNB-19): > 100 µM (inactive)
- GI50 (HOP-92): 47.8 µM (inactive)
- GI50 (HL-60): > 100 µM (inactive)
- GI50 (NCI-H23): > 100 µM (inactive)
- GI50 (DU-145): > 100 µM (inactive)
- GI50 (HOP-62): > 100 µM (inactive)
- GI50 (M14): > 100 µM (inactive)
- GI50 (KM12): > 100 µM (inactive)
- GI50 (U-251): > 100 µM (inactive)
- GI50 (SK-MEL-2): > 100 µM (inactive)
- GI50 (COLO 205): > 100 µM (inactive)
- GI50 (MCF7): > 100 µM (inactive)
- GI50 (OVCAR-5): > 100 µM (inactive)
- GI50 (SK-MEL-5): > 100 µM (inactive)
- GI50 (MDA-N): > 100 µM (inactive)
- GI50 (MOLT-4): > 100 µM (inactive)
- GI50 (SF-295): > 100 µM (inactive)
- GI50 (SNB-75): 25.1 µM (inactive)
- GI50 (Hs-578T): > 100 µM (inactive)
- GI50 (MDA-MB-435): > 100 µM (inactive)
- GI50 (HT-29): > 100 µM (inactive)
- GI50 (ACHN): > 100 µM (inactive)
- GI50 (T47D): > 100 µM (inactive)
- GI50 (UO-31): 84.5 µM (inactive)
- GI50 (NCI-H226): > 100 µM (inactive)
- GI50 (HCC 2998): > 100 µM (inactive)

Structure (SMILES): C[C@@H]1C[C@](O)([C@@H](C)Cl)C(=O)O[C@@H]2CCN3CC=C(COC(=O)[C@]1(C)O)[C@H]23
- GI50 (BT-549): > 100 µM (inactive)
- GI50 (PC-3): > 100 µM (inactive)
- GI50 (HCT-15): > 100 µM
- GI50 (SK-MEL-28): > 100 µM (inactive)
- GI50 (RPMI-8226): > 100 µM (inactive)
- GI50 (UACC-62): > 100 µM (inactive)
- GI50 (NCI-H460): > 10 µM (inactive)
- GI50 (OVCAR-3): > 100 µM (inactive)
- GI50 (NCI-H522): > 100 µM (inactive)
- GI50 (LOX IMVI): > 100 µM (inactive)
- GI50 (A498): > 100 µM (inactive)
- GI50 (A549): > 100 µM (inactive)
- GI50 (NCI/ADR-RES): > 100 µM (inactive)
- GI50 (SW-620): > 100 µM (inactive)
- GI50 (OVCAR-8): > 100 µM (inactive)
- GI50 (SR): > 100 µM (inactive)
- GI50 (UACC-257): > 100 µM (inactive)
- GI50 (TK-10): > 100 µM (inactive)
- GI50 (IGROV-1): > 100 µM (inactive)
- GI50 (SF-539): > 100 µM (inactive)
- GI50 (OVCAR-4): > 100 µM (inactive)
- GI50 (EKVX): > 100 µM (inactive)
- GI50 (HCT-116): > 100 µM (inactive)
- GI50 (CCRF-CEM): > 10 µM (inactive)
- GI50 (CAKI-1): > 100 µM (inactive)
- GI50 (MDA-MB-231): > 100 µM (inactive)
- GI50 (SK-OV-3): > 100 µM (inactive)
- GI50 (SF-268): > 100 µM (inactive)
- GI50 (786-0): > 100 µM (inactive)
- GI50 (K562): > 100 µM (inactive)
- GI50 (SNB-19): > 10 µM (inactive)
- GI50 (HOP-92): > 100 µM (inactive)
- GI50 (HL-60): > 100 µM (inactive)
- GI50 (NCI-H23): > 10 µM (inactive)
- GI50 (DU-145): > 100 µM (inactive)
- GI50 (HOP-62): > 100 µM (inactive)
- GI50 (M14): > 100 µM (inactive)
- GI50 (KM12): > 100 µM (inactive)
- GI50 (U-251): > 100 µM (inactive)
- GI50 (SK-MEL-2): > 100 µM (inactive)
- GI50 (COLO 205): > 100 µM (inactive)
- GI50 (MCF7): > 100 µM (inactive)
- GI50 (OVCAR-5): > 100 µM (inactive)
- GI50 (SK-MEL-5): > 100 µM (inactive)
- GI50 (MDA-N): > 100 µM (inactive)
- GI50 (SF-295): > 100 µM (inactive)
- GI50 (SNB-75): > 100 µM (inactive)
- GI50 (Hs-578T): > 100 µM (inactive)
- GI50 (MDA-MB-435): > 100 µM (inactive)
- GI50 (HT-29): > 100 µM (inactive)
- GI50 (ACHN): > 10 µM (inactive)
- GI50 (T47D): > 100 µM (inactive)
- GI50 (UO-31): > 10 µM (inactive)
- GI50 (NCI-H226): > 100 µM (inactive)
- GI50 (HCC 2998): > 100 µM (inactive)
